From ChEMBL document CHEMBL1201862, “PubChem BioAssay data set” (2004)
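Exposure lasted 48 hours, with cells grown in 96-well plates and compounds tested at five concentrations. Abbreviation: GI50, concentration required for 50% inhibition of growth.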 The source made the active and inactive calls. Cut-off read from the data, not from the text of the source: active = GI50 up to about 1.1 µM and inactive = higher. Residues, ends and D or L forms follow the SMILES beside them. *: point of attachment. Cbz = O=C(OCc1ccccc1)*

Columns and labels:
Assay in all cases: NCI-60 cell line screen, 48 h
[1] = system: NCI-H522
[2] = system: HOP-92
[3] = system: SW-620
[4] = system: NCI-H23
[5] = system: Hs-578T
[6] = system: M14
[7] = system: PC-3
[8] = system: RPMI-8226
[9] = system: A498
[10] = system: RXF 393
[11] = system: EKVX
[12] = system: SK-MEL-28
[13] = system: UO-31
[14] = system: UACC-257
[15] = system: OVCAR-4
[16] = system: HCC 2998
[17] = system: A549
[18] = system: HOP-62
[19] = system: COLO 205

Measured: GI50

CCOC(=O)CCC(NC(=O)OCc1ccccc1)C(=O)NC(CCC(=O)OCC)C(=O)OCC (stereo not drawn) (Cbz-Glu(OEt)-Glu(OEt)-OEt; configuration not given here)
inactive: [1] > 100 µM | [2] > 100 µM | [3] > 100 µM | [4] > 100 µM | [5] > 100 µM | [6] > 100 µM | [7] > 100 µM | [8] > 100 µM | [9] > 100 µM | [10] > 100 µM | [11] > 100 µM | [12] > 100 µM | [13] > 100 µM | [14] > 100 µM | [15] > 100 µM | [16] > 100 µM | [17] > 100 µM | [18] > 100 µM | [19] > 100 µM

O=c1[nH]c2ccccc2c2oc(-c3ccccc3)nc12
inactive: [1] 61.5 µM | [2] 28.5 µM | [3] 22.9 µM | [4] 65.8 µM | [5] 25.1 µM | [6] > 100 µM | [7] > 100 µM | [8] 27.9 µM | [9] 27 µM | [10] 20.4 µM | [11] > 100 µM | [13] > 100 µM | [14] > 100 µM | [15] 60.7 µM | [16] > 100 µM | [17] 47.6 µM | [18] 15.8 µM | [19] 18.6 µM

CNc1nc(SC)nc2c1c(N)nn2C
inactive: [1] > 100 µM | [2] > 100 µM | [3] > 100 µM | [4] > 100 µM | [5] 95.3 µM | [6] > 100 µM | [7] > 100 µM | [8] > 100 µM | [9] 99.5 µM | [10] > 100 µM | [12] > 100 µM | [13] > 100 µM | [14] > 100 µM | [15] > 100 µM | [16] > 100 µM | [17] > 100 µM | [18] > 100 µM | [19] > 100 µM

COc1cc2ncnc(NS(=O)(=O)c3cc4ccccc4s3)c2cc1OC
inactive: [1] 28.2 µM | [2] 34 µM | [3] > 100 µM | [4] 93.1 µM | [5] 49.9 µM | [6] > 100 µM | [7] > 100 µM | [8] 58.3 µM | [9] 56.4 µM | [10] 29.8 µM | [11] 75 µM | [13] 76 µM | [14] > 100 µM | [15] 92.7 µM | [16] > 100 µM | [17] > 100 µM | [18] > 100 µM | [19] > 100 µM
